One data set concerns Sarcoma 180 tumor. The experiment in a line: Therapeutic Effect on Sarcoma 180 Tumor. The note with it: Mus musculus, Sarcoma-180, 168 h; dose 1.0 mg/kg, intravenous, one day after implantation; determined seven days after implantation; read-out: T/C (average tumor volume treated / control). Format: in vivo, male ddY-strain mice. The protocol: Five male ddY-strain mice each weighing 18-20 g were used for each group as test animals, and 5×10^5 Sarcoma 180 tumor cells were implantedat the axilla subcutaneously. One day after the implantation, 0.2 ml of a physiological saline containing Compound (I) at the concentration shown in Table 3 was intravenously administered to each mouse. T/C [T: average tumor volume (mm^3) of the group treated with the test compound, C: average tumor volume (mm^3) of the control group (to which 0.2 ml of a physiological saline was intravenously administered)] was determined seven days after the implantation.
Take `COC(=O)c1c(C)[nH]c2c(OC(=O)SC)cc3c(c12)C(CBr)CN3C(=O)/C=C/c1ccc(OC)cc1` (stereo not shown) [Compound 15]: the response vs control in vivo at 1 mg/kg amounted to 36%.

Still in this data set, the particulars now being: Mus musculus, Sarcoma-180, 168 h; dose 2.0 mg/kg, intravenous, one day after implantation; determined seven days after implantation; read-out: T/C (average tumor volume treated / control).
`COC(=O)c1c(C)[nH]c2c(OC(=O)c3cccnc3)cc3c(c12)C(CBr)CN3C(=O)/C=C/c1ccc(OC)cc1` (stereo not shown) [Compound 16]: the response vs control in vivo at 2 mg/kg turned out to be 33%.

Take `COC(=O)c1c(C)[nH]c2c(OC(=O)c3cccc(N(C)C)c3)cc3c(c12)C(CBr)CN3C(=O)/C=C/c1ccc(OC)cc1` (stereo not shown) [Compound 24]: the response vs control in vivo at 2 mg/kg was 31%.

`COC(=O)c1c(C)[nH]c2c(OC(=O)NN(C)C)cc3c(c12)C(CBr)CN3C(=O)/C=C/c1ccc(OC)cc1` (stereo not shown) [Compound 29]: the response vs control in vivo at 2 mg/kg came out at 18%.

`COC(=O)c1c(C)[nH]c2c(OC(=O)c3ccc(CNC(=O)OC(C)(C)C)cc3)cc3c(c12)C(CBr)CN3C(=O)/C=C/c1ccc(OC)cc1` (stereo not shown) [Compound 34]: the response vs control in vivo at 2 mg/kg turned out to be 28%.

Still in this data set, the particulars now being: Mus musculus, Sarcoma-180, 168 h; dose 4.0 mg/kg, intravenous, one day after implantation; determined seven days after implantation; read-out: T/C (average tumor volume treated / control).
In the case of `COC(=O)c1c(C)[nH]c2c(OC(=O)NCC(=O)O)cc3c(c12)C(CBr)CN3C(=O)c1cc2cc(OC)c(OC)c(OC)c2[nH]1` (stereo not shown) [Compound 10], the response vs control in vivo at 4 mg/kg stood at 10%.

Consider `COC(=O)c1c(C)[nH]c2c(OC(=O)NC(Cc3ccccc3)C(=O)O)cc3c(c12)C(CBr)CN3C(=O)c1cc2cc(OC)c(OC)c(OC)c2[nH]1` (stereo not shown) [Compound 11], for which the response vs control in vivo at 4 mg/kg stood at 7%.

On to `COC(=O)c1c(C)[nH]c2c(OC(=O)c3ccc(CN)cc3)cc3c(c12)C(CBr)CN3C(=O)/C=C/c1ccc(OC)cc1` (stereo not shown) [Compound 36], for which the response vs control in vivo at 4 mg/kg stood at 35%.

The data set is the same for the next values; noted with them: Mus musculus, Sarcoma-180, 168 h; dose 8.0 mg/kg, intravenous, one day after implantation; determined seven days after implantation; read-out: T/C (average tumor volume treated / control).
Consider `COC(=O)c1c(C)[nH]c2c(OCc3ccccc3)cc3c(c12)C(CBr)CN3C(=O)c1cc2cc(OC)c(OC)c(OC)c2[nH]1` (stereo not shown) [Compound 1], for which the response vs control in vivo at 8 mg/kg was determined as 19%.

Turning to `COC(=O)c1c(C)[nH]c2c(OC)cc3c(c12)C(CBr)CN3C(=O)c1cc2cc(OC)c(OC)c(OC)c2[nH]1` (stereo not shown) [Compound 2], the response vs control in vivo at 8 mg/kg was found to be 27%.

Staying with this data set, now noted: Mus musculus, Sarcoma-180, 168 h; dose 16 mg/kg, intravenous, one day after implantation; determined seven days after implantation; read-out: T/C (average tumor volume treated / control).
In the case of `COC(=O)c1c(C)[nH]c2c(OS(C)(=O)=O)cc3c(c12)C(CBr)CN3C(=O)c1cc2cc(OC)c(OC)c(OC)c2[nH]1` (stereo not shown) [Compound 4], the response vs control in vivo at 16 mg/kg is 20%.

Still in this data set, the particulars now being: Mus musculus, Sarcoma-180, iv, 168 h, read-out: T/C (average tumor volume treated / control), dose 0.50 mg/kg, intravenous, one day after implantation; determined seven days after implantation.
With `COC(=O)c1c(C)[nH]c2c(OC(C)=O)cc3c(c12)C(CBr)CN3C(=O)c1cc2cc(OC)c(OC)c(OC)c2[nH]1` (stereo not shown) [Compound 6], the response vs control in vivo at 0.5 mg/kg was found to be 18%.

In the case of `COC(=O)Oc1cc2c(c3c(C(=O)OC)c(C)[nH]c13)C(CBr)CN2C(=O)c1cc2cc(OC)c(OC)c(OC)c2[nH]1` (stereo not shown) [Compound 7], the response vs control in vivo at 0.5 mg/kg was 10%.

On to `COC(=O)c1c(C)[nH]c2c(OC(=O)Oc3ccccc3)cc3c(c12)C(CBr)CN3C(=O)c1cc2cc(OC)c(OC)c(OC)c2[nH]1` (stereo not shown) [Compound 8], for which the response vs control in vivo at 0.5 mg/kg came out at 9%.

A further data set has as its system ddY-strain male mice. The experiment in a line: Acute toxicity (minimum lethal dose). Format: in vivo. The note with it: intravenous, mortality at 14 days after administration. The protocol:
Compound (I) was intravenously administered to ddY-strain male mice each weighing 20±1 g. MLD (minimum lethal dose) was determined by observing the mortality at 14 days after administration.
With `COC(=O)c1c(C)[nH]c2c(OC(C)=O)cc3c(c12)C(CBr)CN3C(=O)c1cc2cc(OC)c(OC)c(OC)c2[nH]1` (stereo not shown) [Compound 6], the “MLD (minimum lethal dose)” value is listed as 0.25 mg/kg.

As for `COC(=O)Oc1cc2c(c3c(C(=O)OC)c(C)[nH]c13)C(CBr)CN2C(=O)c1cc2cc(OC)c(OC)c(OC)c2[nH]1` (stereo not shown) [Compound 7], the “MLD (minimum lethal dose)” value came out at 0.50 mg/kg.

With `COC(=O)c1c(C)[nH]c2c(OC(=O)Oc3ccccc3)cc3c(c12)C(CBr)CN3C(=O)c1cc2cc(OC)c(OC)c(OC)c2[nH]1` (stereo not shown) [Compound 8], the “MLD (minimum lethal dose)” value turned out to be 0.50 mg/kg.

Consider `COC(=O)c1c(C)[nH]c2c(OC(=O)NCC(=O)O)cc3c(c12)C(CBr)CN3C(=O)c1cc2cc(OC)c(OC)c(OC)c2[nH]1` (stereo not shown) [Compound 10], for which the “MLD (minimum lethal dose)” value is reported as over 4.0 mg/kg.

In the case of `COC(=O)c1c(C)[nH]c2c(OC(=O)NC(Cc3ccccc3)C(=O)O)cc3c(c12)C(CBr)CN3C(=O)c1cc2cc(OC)c(OC)c(OC)c2[nH]1` (stereo not shown) [Compound 11], the “MLD (minimum lethal dose)” value was over 4.0 mg/kg.

With `COC(=O)c1c(C)[nH]c2c(OC(=O)NN(C)C)cc3c(c12)C(CBr)CN3C(=O)/C=C/c1ccc(OC)cc1` (stereo not shown) [Compound 29], the “MLD (minimum lethal dose)” value was determined as 2.0 mg/kg.

The next data set has as its system HeLaS3 cells. The experiment in a line: Growth Inhibitory Effect Against HeLaS3 cells. Format: cell-based. Conditions: Homo sapiens, HeLa S3, 72 h, read-out: IC50, growth inhibition of HeLaS3 cells, 72 hours, 37° C., cell counter. On the procedure: HeLaS3 cells were suspended in MEM medium containing 10% fetal calf serum and 2 mM glutamine to a concentration of 2.67×10^4 cells/ml. The cell suspension thus prepared was put into wells of a 24-well culture plate in an amount of 0.75 ml per well. After the cells were incubated in a CO2 incubator overnight at 37° C., Compound (I) which had been appropriately diluted with a culture medium was added to each well in an amount of 0.25 ml.
The cells were further incubated in the CO2 incubator for 72 hours, and the culture supernatant was removed. Then, the cells were dispersed in a solution of trypsin and EDTA, and recovered. The number of the cells was counted using a cell counter. The concentration of Compound (I) at which the growth of the cells is inhibited by 50% was calculated by comparing the number of untreated cells with the number of the cells treated with Compound (I) at known concentrations, and the value was defined as IC50.
The IC50 is the concentration that inhibits the measured activity by half. `COC(=O)c1c(C)[nH]c2c(OC(C)=O)cc3c(c12)C(CBr)CN3C(=O)c1cc2cc(OC)c(OC)c(OC)c2[nH]1` (stereo not shown) [Compound 6]: the IC50 was 130 pM.

Turning to `COC(=O)Oc1cc2c(c3c(C(=O)OC)c(C)[nH]c13)C(CBr)CN2C(=O)c1cc2cc(OC)c(OC)c(OC)c2[nH]1` (stereo not shown) [Compound 7], the IC50 came out at 82 pM.

As to `COC(=O)c1c(C)[nH]c2c(OC(=O)Oc3ccccc3)cc3c(c12)C(CBr)CN3C(=O)c1cc2cc(OC)c(OC)c(OC)c2[nH]1` (stereo not shown) [Compound 8], the IC50 is 51 pM.

Staying with this data set, now noted: Homo sapiens, HeLa S3; 72 hours, 37° C., cell counter; read-out: IC50, growth inhibition of HeLaS3 cells.
Take `COC(=O)c1c(C)[nH]c2c(OCc3ccccc3)cc3c(c12)C(CBr)CN3C(=O)c1cc2cc(OC)c(OC)c(OC)c2[nH]1` (stereo not shown) [Compound 1]: the IC50 stood at 5100 pM.

For the compound `COC(=O)c1c(C)[nH]c2c(OC)cc3c(c12)C(CBr)CN3C(=O)c1cc2cc(OC)c(OC)c(OC)c2[nH]1` (stereo not shown) [Compound 2], the IC50 is 6300 pM.

As to `COC(=O)c1c(C)[nH]c2c(OS(C)(=O)=O)cc3c(c12)C(CBr)CN3C(=O)c1cc2cc(OC)c(OC)c(OC)c2[nH]1` (stereo not shown) [Compound 4], the IC50 was 4000 pM.

As to `COC(=O)c1c(C)[nH]c2c(OC(=O)NCC(=O)O)cc3c(c12)C(CBr)CN3C(=O)c1cc2cc(OC)c(OC)c(OC)c2[nH]1` (stereo not shown) [Compound 10], the IC50 turned out to be 230 pM.

For the compound `COC(=O)c1c(C)[nH]c2c(OC(=O)NC(Cc3ccccc3)C(=O)O)cc3c(c12)C(CBr)CN3C(=O)c1cc2cc(OC)c(OC)c(OC)c2[nH]1` (stereo not shown) [Compound 11], the IC50 was 170 pM.

Regarding `COC(=O)c1c(C)[nH]c2c(OC(=O)SC)cc3c(c12)C(CBr)CN3C(=O)/C=C/c1ccc(OC)cc1` (stereo not shown) [Compound 15], the IC50 was found to be 430 pM.

In the case of `COC(=O)c1c(C)[nH]c2c(OC(=O)c3cccnc3)cc3c(c12)C(CBr)CN3C(=O)/C=C/c1ccc(OC)cc1` (stereo not shown) [Compound 16], the IC50 was determined as 400 pM.

For `COC(=O)c1c(C)[nH]c2c(OC(=O)c3cccc(N(C)C)c3)cc3c(c12)C(CBr)CN3C(=O)/C=C/c1ccc(OC)cc1` (stereo not shown) [Compound 24], the IC50 worked out at 430 pM.

Regarding `COC(=O)c1c(C)[nH]c2c(OC(=O)NN(C)C)cc3c(c12)C(CBr)CN3C(=O)/C=C/c1ccc(OC)cc1` (stereo not shown) [Compound 29], the half-maximal inhibitory concentration (IC50) amounted to 430 pM.

On to `COC(=O)c1c(C)[nH]c2c(OC(=O)c3ccc(CNC(=O)OC(C)(C)C)cc3)cc3c(c12)C(CBr)CN3C(=O)/C=C/c1ccc(OC)cc1` (stereo not shown) [Compound 34], for which the IC50 is 520 pM.

As to `COC(=O)c1c(C)[nH]c2c(OC(=O)c3ccc(CN)cc3)cc3c(c12)C(CBr)CN3C(=O)/C=C/c1ccc(OC)cc1` (stereo not shown) [Compound 36], the IC50 is 1000 pM.
